Results: patent US20020006421A1, “Long-acting, chemical-resistant skin emollients, moisturizers, and strengtheners” (priority 1997, published 2002)

Experiment: Reaction with N-acetylcysteamine (model for skin-bound sulfhydryl groups) in the presence of base, followed by 1H NMR
Conditions: for time after which the reaction was complete by NMR: 1 equivalent N-acetylcysteamine per crotonyl moiety, CDCl3
Description: As a model for skin-bound sulfhydryl groups (—SH) of cysteine residues in skin proteins, the compound N-acetylcysteamine was allowed to react with OSM in the presence of a catalytic amount of the base 1,5-diazabicyclo[4.3.0]non-5-ene (DBN) in chloroform solution.
As a model for skin-bound sulfhydryl groups (—SH) of cysteine residues in skin proteins, the compound N-acetylcysteamine was allowed to react with OCM in the presence of a catalytic amount of the base 1,5-diazabicyclo[4.3.0]non-5-ene (DBN) in chloroform solution.
As a model for skin bound sulfhydryl groups (—SH) of cysteine residues in skin proteins, the compound N-acetylcysteamine was allowed to react with DCPEG in the presence of a catalytic amount of the base 1,5-diazabicyclo[4.3.0]non-5-ene (DBN) in chloroform solution.
A solution of octadecyl S-sorbyl-3 -mercaptopropionate (10.9 mg, 0.024 mmol) in 0.3 mL of CDCl3 was added to a solution of N-acetylcysteamine (5.2 μL, 0.048 mmol) and DBN (3.1 μL, 0.025 mmol) in 0.3 mL of CDCl3. The mixture was immediately transferred to an NMR tube and the first spectrum was recorded at time=0. The reaction solution was allowed to stand at room temperature in the NMR tube for two days, and the course of the reaction was monitored by periodically recording the ^1H NMR spectrum. A total often ^1H NMR experiments were performed at time=0, 0.25, 0.5, 1, 1.5, 4.5, 12, 20.5, 26, and 39 hours.
The time course of the reaction of OSM with 2 equiv of N-acetylcysteamine in the presence of 1 equiv of DBN in 0.6 mL of CDCl3 was studied by recording ^1H NMR spectra at various times for 39 hours. The signals of the olefinic protons due to the sorbate group of OSM (δ 6.2-6.0 and δ 7.2) and that of the newly formed C═C bond of the monoadducts (δ 5.6-5.2) were monitored in particular. In the course of these experiments, it was observed that the signals at δ 6.2-6.0 and δ 7.2 disappeared, while those at δ 5.6-5.2 appeared over the first 1.5 hours of the reaction, which indicated the formation of the monoadducts. The olefinic protons signals of the monoadducts started to fade away gradually after 1.5 hours and became very weak by approximately 39 hours. These spectra may imply the formation of the diadduct.
The reaction of OCM with N-acetylcysteamine was carried out at room temperature as follows: 22.0 mg of OCM was dissolved in 0.6 mL of CDCl3 and 5.7 μL of N-acetylcysteamine (1 equivalent) was added. […] Then a catalytic amount (0.1 equiv) of the base DBN was added, and the NMR spectrum was recorded immediately and again after 5 minutes. By 5 minutes, more than 60% of the OCM had reacted as judged by the diminished integration of the resonances at 6.9 ppm and 6.1 ppm due to the vinyl protons of the crotonyl moiety of OCM. […] A COSY spectrum confirmed that the expected product, shown earlier herein, had been formed. Nucleophilic attack by the sulfur atom of N-acetylcysteamine, presumably as the thiolate anion, at the β-position of the unsaturated thiol ester generated the expected covalent adduct. […]
The reaction of DCPEG with N-acetylcysteamine was followed by NMR: 35.6 mg of DCPEG was dissolved in 0.7 mL CDCl3 and the spectrum was recorded before and after addition of N-acetylcysteamine (1 equivalent per crotonyl moiety). […]

[1] = 2 equiv N-acetylcysteamine, 1 equiv DBN, CDCl3, room temperature

| Compound | time by which the monoadduct olefinic proton signals became very weak (may imply diadduct formation) [1] | time over which sorbate olefinic signals disappeared and monoadduct signals appeared [1] [h] | time after which the reaction was complete by NMR (0.1 equiv DBN) [min] | OCM reacted, judged by diminished integration of the vinyl proton resonances (1 equivalent N-acetylcysteamine, 0.1 equiv DBN, CDCl3, room temperature, by 5 minutes) |
| --- | --- | --- | --- | --- |
| C/C=C/C=C/C(=O)SCCC(=O)OCCCCCCCCCCCCCCCCCC [OSM, octadecyl S-sorbyl-3-mercaptopropionate] | approximately 39 hours | ≤ 1.5 | – | – |
| C/C=C/C(=O)SCCC(=O)OCCCCCCCCCCCCCCCCCC [OCM, octadecyl S-crotonyl-3-mercaptopropionate] | – | – | 27 | more than 60% |
| S,S′-dicrotonyl-α-thio-ω-mercapto[poly(ethylene glycol)] [DCPEG] | – | – | 5 | – |
